According to PubChem BioAssay (NCI):
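Protocol summary: plate cells (96-well), add compound at 5 concentrations, incubate 48 h, interpolate endpoints linearly. At the GI50, growth is halved. The concentration for full growth arrest is given as TGI.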

Columns and labels:
Assay in all cases: inhibition of tumour cell growth, NCI panel, 48 h; in the data active means GI50 below about 0.43 µM; inactive means the rest
[1] = system: 786-0 renal
[2] = system: A498 renal
[3] = system: A549 NSCLC
[4] = system: ACHN renal
[5] = system: BT-549 breast
[6] = system: CAKI-1 renal
[7] = system: CCRF-CEM leukemia
[8] = system: COLO 205 colon
[9] = system: DU-145 prostate
[10] = system: EKVX NSCLC
[11] = system: HCC-2998 colon
[12] = system: HCT-116 colon
[13] = system: HCT-15 colon
[14] = system: HL-60(TB) leukemia
[15] = system: HOP-62 NSCLC
[16] = system: HOP-92 NSCLC
[17] = system: HS 578T breast
[18] = system: HT29 colon
[19] = system: K-562 leukemia
[20] = system: KM12 colon
[21] = system: LOX IMVI melanoma
[22] = system: M14 melanoma
[23] = system: MALME-3M melanoma
[24] = system: MCF7 breast
[25] = system: MDA-MB-231 breast
[26] = system: MDA-MB-435
[27] = system: MOLT-4 leukemia
[28] = system: NCI-H226 lung
[29] = system: NCI-H23 lung
[30] = system: NCI-H460 lung
[31] = system: NCI-H522 lung
[32] = system: NCI/ADR-RES ovarian
[33] = system: OVCAR-3 ovarian
[34] = system: OVCAR-4 ovarian
[35] = system: OVCAR-5 ovarian
[36] = system: OVCAR-8 ovarian
[37] = system: PC-3 prostate
[38] = system: RXF 393 renal
[39] = system: SF-268 CNS
[40] = system: SF-295 CNS
[41] = system: SF-539 CNS
[42] = system: SK-MEL-2 melanoma
[43] = system: SK-MEL-28 melanoma
[44] = system: SK-MEL-5 melanoma
[45] = system: SK-OV-3 ovarian
[46] = system: SN12C renal
[47] = system: SNB-19 CNS
[48] = system: SNB-75 CNS
[49] = system: SW-620 colon
[50] = system: T-47D breast
[51] = system: TK-10 renal
[52] = system: U251 CNS
[53] = system: UACC-257 melanoma
[54] = system: UACC-62 melanoma
[55] = system: UO-31 renal
[56] = system: IGROV1 ovarian
[57] = system: RPMI-8226 leukemia
[58] = system: SR leukemia

O=S1(=O)NC(=NCc2c[nH]c3ccccc23)N(c2ccccc2)c2ccncc21
92.7 µM: TGI [17] | TGI [31]
75.6 µM: TGI [39]
> 100 µM: TGI [1] | TGI [2] | TGI [3] | TGI [4] | TGI [5] | TGI [6] | TGI [7] | TGI [8] | TGI [9] | TGI [10] | TGI [11] | TGI [12] | TGI [13] | TGI [14] | TGI [15] | TGI [16] | TGI [18] | TGI [19] | TGI [20] | TGI [21] | TGI [22] | TGI [23] | TGI [24] | TGI [25] | TGI [26] | TGI [27] | TGI [28] | TGI [29] | TGI [30] | TGI [32] | TGI [33] | TGI [34] | TGI [35] | TGI [36] | TGI [37] | TGI [38] | TGI [40] | TGI [41] | TGI [42] | TGI [43] | TGI [44] | TGI [45] | TGI [46] | TGI [47] | TGI [49] | TGI [50] | TGI [51] | TGI [52] | TGI [53] | TGI [54] | TGI [55]
43.3 µM: TGI [48]

C#Cc1ccc(-n2c(/C=C/c3ccc(C(F)(F)F)cc3)nc3ncccc3c2=O)cc1
3.13 µM: TGI [52]
3.47 µM: TGI [11]
3.37 µM: TGI [5]
inactive: GI50 [1] 2.06 µM | GI50 [2] 2.34 µM | GI50 [3] 1.83 µM | GI50 [4] 1.71 µM | GI50 [5] 1.71 µM | GI50 [6] 2.26 µM | GI50 [7] 1.95 µM | GI50 [8] 2.23 µM | GI50 [9] 3.76 µM | GI50 [11] 1.96 µM | GI50 [12] 1.63 µM | GI50 [13] 1.74 µM | GI50 [14] 2.07 µM | GI50 [15] 2.43 µM | GI50 [16] 1.32 µM | GI50 [17] 3.46 µM | GI50 [18] 2.03 µM | GI50 [56] 1.96 µM | GI50 [19] 2.96 µM | GI50 [20] 1.79 µM | GI50 [21] 1.89 µM | GI50 [22] 2.07 µM | GI50 [23] 1.64 µM | GI50 [24] 2.49 µM | GI50 [25] 2.05 µM | GI50 [26] 2.27 µM | GI50 [27] 3.01 µM | GI50 [28] 1.99 µM | GI50 [29] 3.9 µM | GI50 [30] 1.98 µM | GI50 [31] 1.65 µM | GI50 [32] 2.5 µM | GI50 [33] 1.67 µM | GI50 [34] 1.58 µM | GI50 [35] 1.94 µM | GI50 [36] 1.87 µM | GI50 [37] 1.96 µM | GI50 [57] 1.39 µM | GI50 [38] 1.79 µM | GI50 [39] 2.27 µM | GI50 [41] 1.68 µM | GI50 [42] 2.03 µM | GI50 [43] 1.78 µM | GI50 [44] 1.49 µM | GI50 [45] 3.61 µM | GI50 [46] 2.08 µM | GI50 [47] 1.91 µM | GI50 [48] 1.81 µM | GI50 [58] 2 µM | GI50 [49] 1.92 µM | GI50 [50] 2.02 µM | GI50 [51] 2.19 µM | GI50 [52] 1.67 µM | GI50 [53] 1.56 µM | GI50 [54] 1.62 µM | GI50 [55] 1.43 µM
8.71 µM: TGI [19]
3.29 µM: TGI [34]
3.08 µM: TGI [31]
3.57 µM: TGI [23]
7 µM: TGI [32]
4.56 µM: TGI [3]
4.27 µM: TGI [22]
3.26 µM: TGI [4] | TGI [43]
4.09 µM: TGI [28] | TGI [42]
6.48 µM: TGI [26]
3.76 µM: TGI [49]
8.81 µM: TGI [27]
5.95 µM: TGI [39]
4.13 µM: TGI [30]
10.2 µM: TGI [24]
3.79 µM: TGI [38]
3.68 µM: TGI [13]
12.2 µM: TGI [9]
3.95 µM: TGI [18]
5.11 µM: TGI [15]
6.07 µM: TGI [14]
3.56 µM: TGI [35]
3.7 µM: TGI [1] | TGI [51]
6.22 µM: TGI [6]
4.02 µM: TGI [56]
5.76 µM: TGI [2]
4.29 µM: TGI [21]
8.08 µM: TGI [58]
7.22 µM: TGI [48]
3.44 µM: TGI [16] | TGI [20]
4.97 µM: TGI [50]
4.48 µM: TGI [8]
> 100 µM: TGI [7] | TGI [17]
3.02 µM: TGI [12]
6.28 µM: TGI [57]
4.67 µM: TGI [36]
3.17 µM: TGI [33] | TGI [41]
13.4 µM: TGI [45]
3.61 µM: TGI [54]
2.95 µM: TGI [53]
3.67 µM: TGI [55]
2.87 µM: TGI [44]
19 µM: TGI [29]
5.63 µM: TGI [46]
5.47 µM: TGI [25]
4.25 µM: TGI [47]
6.31 µM: TGI [37]

O=C(Nc1ccccc1)NS(=O)(=O)c1ccc(-n2nc3c(c2-c2cccs2)Cc2ccccc2-3)cc1
96.2 µM: TGI [9]
> 100 µM: TGI [3] | TGI [7] | TGI [8] | TGI [16] | TGI [18] | TGI [56] | TGI [20] | TGI [24] | TGI [27] | TGI [30] | TGI [31] | TGI [33] | TGI [34] | TGI [36] | TGI [37] | TGI [38] | TGI [39] | TGI [42] | TGI [43] | TGI [45] | TGI [47] | TGI [48] | TGI [50] | TGI [55]
21.3 µM: TGI [12]
30.8 µM: TGI [51]
76.2 µM: TGI [19]
33.6 µM: TGI [21]
55.5 µM: TGI [41]
38 µM: TGI [4]
89.7 µM: TGI [35]
31.8 µM: TGI [11]
66.4 µM: TGI [57]
52.5 µM: TGI [17]
43 µM: TGI [32]
60.8 µM: TGI [25]
55.3 µM: TGI [52]
51.2 µM: TGI [49]
87.2 µM: TGI [10]
67.7 µM: TGI [53]
73.5 µM: TGI [40]
44.1 µM: TGI [6]
47 µM: TGI [15] | TGI [22]
58.3 µM: TGI [26]
44.7 µM: TGI [13]
31.5 µM: TGI [44]
29.6 µM: TGI [29]
67.9 µM: TGI [5]
64.2 µM: TGI [46]
inactive: GI50 [1] 17.6 µM | GI50 [3] 20.8 µM | GI50 [4] 17.6 µM | GI50 [5] 24.1 µM | GI50 [6] 11.1 µM | GI50 [7] 13.6 µM | GI50 [8] 44 µM | GI50 [9] 28.6 µM | GI50 [10] 26.1 µM | GI50 [11] 15.3 µM | GI50 [12] 9.13 µM | GI50 [13] 16.9 µM | GI50 [15] 18.1 µM | GI50 [16] 12.3 µM | GI50 [17] 16.8 µM | GI50 [18] 26.7 µM | GI50 [56] 21.4 µM | GI50 [19] 14 µM | GI50 [20] 8.08 µM | GI50 [21] 12 µM | GI50 [22] 25 µM | GI50 [24] 13.4 µM | GI50 [25] 15.3 µM | GI50 [26] 22.1 µM | GI50 [27] 15.5 µM | GI50 [28] 19.2 µM | GI50 [29] 12.2 µM | GI50 [30] 18.9 µM | GI50 [31] 31.5 µM | GI50 [32] 16.1 µM | GI50 [33] 21.8 µM | GI50 [34] 34.9 µM | GI50 [35] 20.1 µM | GI50 [36] 28.3 µM | GI50 [37] 10.4 µM | GI50 [57] 5.49 µM | GI50 [38] 85.3 µM | GI50 [39] 26 µM | GI50 [40] 21.9 µM | GI50 [41] 25 µM | GI50 [42] 70.1 µM | GI50 [43] 50.2 µM | GI50 [44] 15.6 µM | GI50 [45] 60.8 µM | GI50 [46] 19.9 µM | GI50 [47] > 100 µM | GI50 [48] 70.4 µM | GI50 [49] 22.9 µM | GI50 [50] 37.9 µM | GI50 [51] 4.99 µM | GI50 [52] 22.9 µM | GI50 [53] 17.7 µM | GI50 [54] 15.8 µM | GI50 [55] 32.3 µM
35.2 µM: TGI [1]
59 µM: TGI [28]
35 µM: TGI [54]

COc1cc2c(cc1OC)C(c1ccccc1CCCCl)=NCC2
49.7 µM: TGI [43]
47.2 µM: TGI [44]
42 µM: TGI [57]
45.9 µM: TGI [26]
> 100 µM: TGI [1] | TGI [2] | TGI [3] | TGI [4] | TGI [5] | TGI [6] | TGI [7] | TGI [8] | TGI [9] | TGI [10] | TGI [11] | TGI [12] | TGI [13] | TGI [14] | TGI [15] | TGI [16] | TGI [17] | TGI [18] | TGI [56] | TGI [19] | TGI [20] | TGI [22] | TGI [24] | TGI [25] | TGI [27] | TGI [28] | TGI [29] | TGI [30] | TGI [31] | TGI [32] | TGI [33] | TGI [34] | TGI [35] | TGI [36] | TGI [37] | TGI [38] | TGI [39] | TGI [40] | TGI [41] | TGI [42] | TGI [45] | TGI [46] | TGI [47] | TGI [48] | TGI [49] | TGI [50] | TGI [51] | TGI [52] | TGI [53] | TGI [54] | TGI [55]
